Reference: patent US20250177363A1, “SUBSTITUTED IMIDAZOPYRIDINYL COMPOUNDS USEFUL AS INHIBITORS OF TLR9” (Bristol-Myers Squibb Company, priority 2022, published 2025)
pIC50: −log10 of the molar value.

How the values were obtained:
Type in all cases: cell-based
human TLR8 = target: T1, human TLR8 (Homo sapiens, UniProt Q9NR97); experiment: TLR8 inhibition reporter assay (HEK-Blue, SEAP); details: HEK-Blue cells overexpressing human TLR8, ligand R848 14.25 μM, 22 hour incubation
T1 construct: host or cells: HEK-Blue cells
T1 sequence (Q9NR97 27-1041): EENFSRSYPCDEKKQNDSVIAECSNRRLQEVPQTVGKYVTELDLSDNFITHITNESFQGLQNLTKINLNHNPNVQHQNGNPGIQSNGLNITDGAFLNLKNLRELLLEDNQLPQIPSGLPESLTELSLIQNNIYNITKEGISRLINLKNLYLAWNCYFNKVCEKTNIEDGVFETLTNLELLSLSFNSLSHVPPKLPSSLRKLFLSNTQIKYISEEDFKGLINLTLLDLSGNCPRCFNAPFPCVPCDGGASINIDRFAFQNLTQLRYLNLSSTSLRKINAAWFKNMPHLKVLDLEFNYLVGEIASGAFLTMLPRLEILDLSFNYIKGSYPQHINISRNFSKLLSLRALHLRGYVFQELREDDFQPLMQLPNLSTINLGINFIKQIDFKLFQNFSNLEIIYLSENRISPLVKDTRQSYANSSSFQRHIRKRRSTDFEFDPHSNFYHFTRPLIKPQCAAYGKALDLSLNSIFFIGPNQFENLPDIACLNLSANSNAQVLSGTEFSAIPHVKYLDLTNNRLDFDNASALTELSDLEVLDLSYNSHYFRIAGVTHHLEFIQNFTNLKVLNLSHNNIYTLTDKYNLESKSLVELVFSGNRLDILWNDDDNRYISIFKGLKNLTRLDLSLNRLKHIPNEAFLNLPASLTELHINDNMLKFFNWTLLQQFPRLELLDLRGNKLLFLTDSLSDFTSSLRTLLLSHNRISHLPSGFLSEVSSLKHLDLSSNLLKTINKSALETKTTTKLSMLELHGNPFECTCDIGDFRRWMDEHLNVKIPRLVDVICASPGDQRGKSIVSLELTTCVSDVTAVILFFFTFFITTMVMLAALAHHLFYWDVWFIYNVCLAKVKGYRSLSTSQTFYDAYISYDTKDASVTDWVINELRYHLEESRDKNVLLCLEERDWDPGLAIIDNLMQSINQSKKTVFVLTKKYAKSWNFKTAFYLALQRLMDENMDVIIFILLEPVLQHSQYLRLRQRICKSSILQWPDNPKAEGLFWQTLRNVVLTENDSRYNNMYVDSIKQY
Outline: (§1)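 HEK-Blue cells expressing human TLR7, TLR8 or TLR9 with NF-κB/AP-1-driven SEAP reporter; compounds 0.85 nM–50 μM, pre-treated 60 min. Stimulation: gardiquimod 2.5 μM (TLR7), R848 14.25 μM (TLR8), ODN2006 200 nM (TLR9); SEAP read after 22 h at 37 °C. Percent inhibition normalized between agonist+DMSO and known-inhibitor wells.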

human TLR7 = target: T2, human TLR7 (Homo sapiens, UniProt Q9NYK1); experiment: TLR7 inhibition reporter assay (HEK-Blue, SEAP); details: HEK-Blue cells overexpressing human TLR7, ligand gardiquimod 2.5 μM, 22 hour incubation
T2 construct: host or cells: HEK-Blue cells
T2 sequence (Q9NYK1 27-1049): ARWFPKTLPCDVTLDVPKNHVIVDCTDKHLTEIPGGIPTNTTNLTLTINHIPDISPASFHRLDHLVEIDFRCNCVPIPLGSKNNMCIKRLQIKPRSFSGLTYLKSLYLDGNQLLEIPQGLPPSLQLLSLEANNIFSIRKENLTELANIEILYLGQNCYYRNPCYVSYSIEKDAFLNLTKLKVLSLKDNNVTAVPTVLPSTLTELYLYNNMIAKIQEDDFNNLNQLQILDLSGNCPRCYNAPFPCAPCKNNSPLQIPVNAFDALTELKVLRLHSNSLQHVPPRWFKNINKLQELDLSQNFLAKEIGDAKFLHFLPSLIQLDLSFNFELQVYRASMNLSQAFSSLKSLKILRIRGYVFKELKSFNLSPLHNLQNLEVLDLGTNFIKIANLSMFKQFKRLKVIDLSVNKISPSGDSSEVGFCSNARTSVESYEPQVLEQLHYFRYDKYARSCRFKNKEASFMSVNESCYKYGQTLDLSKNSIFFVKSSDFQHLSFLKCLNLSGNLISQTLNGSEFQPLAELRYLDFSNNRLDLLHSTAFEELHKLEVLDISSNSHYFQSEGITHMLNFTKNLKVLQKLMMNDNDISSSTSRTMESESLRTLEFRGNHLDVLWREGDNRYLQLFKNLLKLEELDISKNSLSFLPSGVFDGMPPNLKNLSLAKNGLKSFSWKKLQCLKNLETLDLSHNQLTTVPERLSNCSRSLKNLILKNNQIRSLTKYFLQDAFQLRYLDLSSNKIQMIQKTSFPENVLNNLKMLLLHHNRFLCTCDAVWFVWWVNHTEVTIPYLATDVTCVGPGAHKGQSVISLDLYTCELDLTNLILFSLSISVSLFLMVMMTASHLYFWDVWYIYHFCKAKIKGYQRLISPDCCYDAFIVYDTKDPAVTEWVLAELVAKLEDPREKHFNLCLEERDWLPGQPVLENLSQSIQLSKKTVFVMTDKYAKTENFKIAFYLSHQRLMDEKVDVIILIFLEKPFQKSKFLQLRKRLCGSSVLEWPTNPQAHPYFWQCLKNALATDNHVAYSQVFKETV
Outline: as §1

human TLR9 = target: T3, human TLR9 (Homo sapiens, UniProt Q9NR96); experiment: TLR9 inhibition reporter assay (HEK-Blue, SEAP); details: HEK-Blue cells overexpressing human TLR9, ligand ODN2006 200 nM, 22 hour incubation
T3 construct: host or cells: HEK-Blue cells
T3 sequence (Q9NR96 26-1032): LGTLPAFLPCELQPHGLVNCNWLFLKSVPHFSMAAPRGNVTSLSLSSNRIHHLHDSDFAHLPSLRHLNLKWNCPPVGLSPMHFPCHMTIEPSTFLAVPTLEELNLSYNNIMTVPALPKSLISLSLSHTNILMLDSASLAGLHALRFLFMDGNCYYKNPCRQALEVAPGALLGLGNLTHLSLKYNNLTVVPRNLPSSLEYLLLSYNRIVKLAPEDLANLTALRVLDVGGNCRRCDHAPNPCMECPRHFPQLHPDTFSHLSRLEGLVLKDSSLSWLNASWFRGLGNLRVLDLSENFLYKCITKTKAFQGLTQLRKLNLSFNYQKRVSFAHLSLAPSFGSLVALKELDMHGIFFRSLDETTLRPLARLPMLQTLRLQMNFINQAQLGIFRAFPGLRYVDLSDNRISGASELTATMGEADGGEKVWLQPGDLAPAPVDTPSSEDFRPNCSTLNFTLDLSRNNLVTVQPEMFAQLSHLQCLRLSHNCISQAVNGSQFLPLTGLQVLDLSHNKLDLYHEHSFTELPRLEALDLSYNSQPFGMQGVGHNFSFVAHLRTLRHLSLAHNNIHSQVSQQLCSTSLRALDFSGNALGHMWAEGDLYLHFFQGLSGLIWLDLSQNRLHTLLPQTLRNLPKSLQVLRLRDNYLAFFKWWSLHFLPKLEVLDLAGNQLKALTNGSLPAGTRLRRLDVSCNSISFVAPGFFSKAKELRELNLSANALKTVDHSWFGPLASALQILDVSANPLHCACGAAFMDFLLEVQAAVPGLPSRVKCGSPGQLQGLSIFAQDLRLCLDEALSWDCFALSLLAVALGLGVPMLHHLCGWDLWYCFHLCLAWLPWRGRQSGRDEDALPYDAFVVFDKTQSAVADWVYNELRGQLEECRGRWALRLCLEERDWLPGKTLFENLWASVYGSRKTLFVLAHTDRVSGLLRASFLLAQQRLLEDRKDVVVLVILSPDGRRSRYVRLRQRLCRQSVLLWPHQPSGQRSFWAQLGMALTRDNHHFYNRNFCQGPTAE
Outline: as §1

SMILES | pIC50 (human TLR8) | pIC50 (human TLR7) | pIC50 (human TLR9)
CC(C)N1CC2(CCN(c3ccc(-c4ccc5nc(-c6ccc(S(C)(=O)=O)cc6)n(C)c5n4)cc3)CC2)C1 [Example 61, 5-(4-(2-isopropyl-2,7-diazaspiro[3.5]nonan-7-yl)phenyl)-3-methyl-2-(4-(methylsulfonyl)phenyl)-3H-imidazo[4,5-b]pyridine] | 4.74 | 4.80 | 6.25
Cn1c(-c2ccc(S(C)(=O)=O)cc2)nc2ccc(-c3ccc(N4CCC5(CC4)CN(CC(C)(C)O)C5)cc3)nc21 [Example 63, 2-methyl-1-(7-(4-(3-methyl-2-(4-(methylsulfonyl)phenyl)-3H-imidazo[4,5-b]pyridin-5-yl)phenyl)-2,7-diazaspiro[3.5]nonan-2-yl)propan-2-ol] | 4.36 | 5.38 | 6.26
CC(C)CN1CC2(C1)CN(c1ccc(-c3ccc4nc(-c5ccc(S(C)(=O)=O)cc5)n(C)c4n3)cc1)C2 [Example 66, 5-(4-(6-isobutyl-2,6-diazaspiro[3.3]heptan-2-yl)phenyl)-3-methyl-2-(4-(methylsulfonyl)phenyl)-3H-imidazo[4,5-b]pyridine] | < 4.60 | < 4.30 | 6.24

Now those with a higher pIC50 (human TLR8), led by results:

pIC50 (human TLR8) | pIC50 (human TLR7) | pIC50 (human TLR9) | SMILES
5.44 | 5.60 | 5.96 | COc1ccc(-c2nc3c(C)cc(-c4ccc(N5CCC6(CC5)CN(CC(C)C)C6)cc4)nc3n2C)cc1OC [Example 60, 2-(3,4-dimethoxyphenyl)-5-(4-(2-isobutyl-2,7-diazaspiro[3.5]nonan-7-yl)phenyl)-3,7-dimethyl-3H-imidazo[4,5-b]pyridine]
5.21 | 4.82 | 6.23 | CC(C)CN1CC2(CCN(c3ccc(-c4ccc5nc(-c6ccc(S(C)(=O)=O)cc6)n(C)c5n4)cc3)CC2)C1 [Example 62, 5-(4-(2-isobutyl-2,7-diazaspiro[3.5]nonan-7-yl)phenyl)-3-methyl-2-(4-(methylsulfonyl)phenyl)-3H-imidazo[4,5-b]pyridine]
5.01 | 5.20 | 5.85 | COc1ccc(-c2nc3c(C)cc(-c4ccc(N5CC6(CN(CC(C)C)C6)C5)cc4)nc3n2C)cc1OC [Example 64, 2-(3,4-dimethoxyphenyl)-5-(4-(6-isobutyl-2,6-diazaspiro[3.3]heptan-2-yl)phenyl)-3,7-dimethyl-3H-imidazo[4,5-b]pyridine]
5.52 | < 4.30 | 6.13 | CC(C)N1CC2(CN(c3ccc(-c4ccc5nc(-c6ccc(S(C)(=O)=O)cc6)n(C)c5n4)cc3)C2)C1 [Example 65, 5-(4-(6-isopropyl-2,6-diazaspiro[3.3]heptan-2-yl)phenyl)-3-methyl-2-(4-(methylsulfonyl)phenyl)-3H-imidazo[4,5-b]pyridine]
